The nature of data set [1]: Bidirectional assay across Caco-2 cell monolayers. As to conditions: human.
Source text: Caco-2 cells (RRID:CVCL_0025), a human colon epithelial cancer cell line frequently used as an in vitro intestinal model, were purchased from the American Type Culture Collection (Rockville, MD, USA). […] The receiver side contained transport medium.
For data set [2] the following is noted: in combination with sertraline; cited from earlier work.
The target in data set [3] is T1, P-gp (Homo sapiens, UniProt P08183). The data set is described as follows: ATPase assay with P-gp-expressing membrane vesicles (SB-MDR1 […] ATPase Kit). It counts as biochemical. The protocol:
The SB-MDR1 […] ATPase Kit, including P-gp-expressing membrane vesicles, was purchased from SOLVO Biotechnology (distributed by KAC Co., Ltd., Kyoto, Japan). This assay kit measures the interaction of test drugs with P-gp. ATPase assay was conducted according to the manufacturer’s instructions and a previous report. Inorganic phosphate liberated by ATP hydrolysis was detected by colorimetric reaction. The optical density (OD) was measured at 590 nm with a microplate reader, Sunrise™ Rainbow (TECAN, Kanagawa, Japan).

Data set [4] addresses T1, P-gp. Description: Efflux rate assay using P-gp-overexpressing LLC-GA5-CoL150 cells. The arrangement: host or cells: LLC-GA5-CoL150 (derivative of LLC-PK1 kidney epithelial cells). The format is in vitro ADME. The protocol:
Efflux assay with LLC-GA5-CoL150 cells was performed as previously described, with some modifications. […] The cells were incubated for 30 min at 4°C, washed twice with ice-cold D-PBS(-), and further incubated in Opti-MEM® for 10 min at 37°C. The cells were then washed three times with ice-cold D-PBS(-), dried, and lysed by adding 200 μL of 0.1 N NaOH solution. […] The efflux rate was calculated according to the following formula.
Effluxrate(pmol/min/mgprotein)={Initialuptakeofpimozide(pmol/mgprotein)−Residualamountofpimozideafter10minincubation(pmol/mgprotein)}/10(min)
Protein was determined colorimetrically using DCTM Protein Assay (BIO-RAD, Hercules, CA), based on absorbance measurement at 700 nm with a microplate reader, Sunrise Rainbow RC (Tecan, Kanagawa, Japan). An aliquot of cell lysate was mixed with 300 μL of ethyl acetate for 10 min in the cold, then 100 μL of the organic phase was taken and evaporated. The residue was dissolved in 300 μL of mobile phase. All samples were applied to MultiScreen® Solvent Filter Plates 0.45 μm Low-Binding Hydrophilic PTFE (Merck, Ireland) and centrifuged at 3,500 rpm for 20 min at 4°C.
To estimate the kinetic parameters of carrier-mediated transport in the efflux assays, the transport rate (J) was fitted to the following Eq (1), containing saturable and nonsaturable-linear terms, by using the nonlinear least-squares regression analysis program, MULTI, as previously reported. J=Jmax×[S]/(Kt+[S])+kd×[S] (1) Where Jmax is the maximum transport rate for the carrier-mediated transport, [S] is the substrate concentration, Kt is the half-saturation concentration, and kd is the first-order rate constant.

The mark [5] stands for this setting: pimozide 0.01 to 100 μM, mean ± S.D.

Values joined by “and” are separate entries in the source; they are usually repeats but may differ in a detail not shown here. Equal values may be shown once.

T1 sequence (P08183 whole entry): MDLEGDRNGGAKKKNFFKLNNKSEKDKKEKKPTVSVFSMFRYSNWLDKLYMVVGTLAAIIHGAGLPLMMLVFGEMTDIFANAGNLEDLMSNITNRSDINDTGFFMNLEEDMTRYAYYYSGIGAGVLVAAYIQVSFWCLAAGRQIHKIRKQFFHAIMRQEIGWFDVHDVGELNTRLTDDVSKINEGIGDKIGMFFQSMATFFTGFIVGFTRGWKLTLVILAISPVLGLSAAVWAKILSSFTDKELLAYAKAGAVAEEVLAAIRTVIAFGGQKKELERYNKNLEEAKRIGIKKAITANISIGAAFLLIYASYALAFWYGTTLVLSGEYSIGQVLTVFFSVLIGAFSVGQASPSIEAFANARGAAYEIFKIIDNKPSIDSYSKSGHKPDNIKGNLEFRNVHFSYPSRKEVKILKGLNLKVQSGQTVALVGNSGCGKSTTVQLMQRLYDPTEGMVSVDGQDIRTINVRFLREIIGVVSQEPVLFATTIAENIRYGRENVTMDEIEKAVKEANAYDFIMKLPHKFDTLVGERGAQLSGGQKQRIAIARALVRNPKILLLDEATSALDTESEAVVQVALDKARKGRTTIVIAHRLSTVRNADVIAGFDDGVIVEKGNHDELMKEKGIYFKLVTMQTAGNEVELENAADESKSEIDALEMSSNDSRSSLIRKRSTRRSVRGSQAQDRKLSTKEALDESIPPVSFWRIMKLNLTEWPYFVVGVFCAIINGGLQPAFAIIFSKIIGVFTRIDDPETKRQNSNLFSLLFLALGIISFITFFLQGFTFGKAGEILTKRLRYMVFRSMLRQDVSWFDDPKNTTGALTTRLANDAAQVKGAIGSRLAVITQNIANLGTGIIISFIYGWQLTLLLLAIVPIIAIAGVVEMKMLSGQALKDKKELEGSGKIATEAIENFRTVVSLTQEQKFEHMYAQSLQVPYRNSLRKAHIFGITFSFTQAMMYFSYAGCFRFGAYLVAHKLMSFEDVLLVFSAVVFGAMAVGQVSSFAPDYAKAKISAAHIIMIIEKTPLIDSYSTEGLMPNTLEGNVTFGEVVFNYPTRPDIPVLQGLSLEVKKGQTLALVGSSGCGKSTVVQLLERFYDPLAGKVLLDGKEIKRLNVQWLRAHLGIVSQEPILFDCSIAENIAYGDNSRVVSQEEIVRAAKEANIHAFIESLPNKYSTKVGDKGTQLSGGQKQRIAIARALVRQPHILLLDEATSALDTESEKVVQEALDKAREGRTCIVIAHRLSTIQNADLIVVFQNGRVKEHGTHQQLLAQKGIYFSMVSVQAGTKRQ

In data set [1], `O=c1[nH]c2ccccc2n1C1CCN(CCCC(c2ccc(F)cc2)c2ccc(F)cc2)CC1` [Pimozide] registered a Papp A→B at 120 min, 10 μM of 1.64 ± 0.14 ×10⁻⁶ cm/s and a Papp B→A at 120 min, 10 μM of 0.35 ± 0.01 ×10⁻⁶ cm/s. For the same compound, in data set [2], the “change of blood half-life of pimozide” value was “without any significant change”, the “increase of AUC of pimozide” value was 37% and the “increase of Cmax of pimozide” value is listed as 35%. Besides, the “P-gp substrate/inhibitor classification from ATPase assay” value at P-gp [3] (ATPase activity increased concentration-dependently, reduced in the high concentration range) was “both a P-gp substrate and an inhibitor”. In addition, on P-gp [3] (concentration range 0.04 to 100 μM, concentration-dependent elevation at lower concentrations), the “pimozide concentration over which ATPase activity decreased” value is reported as “about 10 μM”. Also, on P-gp [4], the “Jmax/Kt (affinity for the transport carrier(s))” value is listed as 8.0 μL/min/mg protein. At P-gp [4] (setting [5]), the “Jmax (maximum transport rate for the carrier-mediated transport)” value turned out to be 84.9 ± 8.9 pmol/min/mg protein; the “Kt (half-saturation concentration)” value was 10.6 ± 4.7 µM and 10.6 µM.

The values are drawn from PMC7595425 (PLoS ONE, 2020).
